Measured values reported in US6362369B1, “Phthalic acid diamide derivatives fluorine-containing aniline compounds as starting material, agricultural and horticultural insecticides, and a method for application of the insecticides” (Nihon Nohyaku Co., Ltd., priority 1997, dated 2002).

test system: diamondback moth (Plutella xylostella); experiment: Insecticidal effect on diamondback moth (Test Example 1); assay type: in vivo; settings: diamondback moth; judged by the criterion of Test Example 1
Method: Insecticidal effect on diamondback moth (Plutella xylostella) Adult diamondback moths were released and allowed to oviposit on a Chinese cabbage seedling. […] After air-drying, it was allowed to stand in a room thermostated at 25° C. Six days after the immersion, the hatched insects were counted. The mortality was calculated according to the following equation and the insecticidal effect was judged according to the criterion shown below. The test was carried out with triplicate groups of 10 insects. [table]

| Compound | Insecticidal effect (Test Example 1), judged from mortality |
| --- | --- |
| Cc1cc2c(cc1NC(=O)c1cccc(Cl)c1C(=O)NC(C)C)OC(F)(F)O2 [compound 1661] | A (100) |
| Cc1cc(C(F)(F)C(F)(F)F)ccc1NC(=O)c1c(SC(F)(F)F)ccc(Cl)c1C(=O)NC(C)C [compound 1802] | A (100) |
| Cc1cc(C(F)(F)C(F)(F)F)ccc1NC(=O)c1cccc([S+]([O-])C(F)(F)F)c1C(=O)NC(C)C (stereo not shown) [compound 1804] | A (100) |
| Cc1cc(OC(F)F)ccc1NC(=O)c1c(I)cccc1C(=O)NC1CC1 [compound 1453] | A (100) |
| CCCNC(=O)c1cccc(I)c1C(=O)Nc1ccc(OC(F)F)cc1C [compound 1451] | A (100) |
| CCNC(=O)c1cccc(F)c1C(=O)Nc1ccc(C(F)(F)C(F)(F)F)cc1F [compound 1511] | A (100) |
| Cc1cc(C(F)(F)C(F)(F)F)ccc1NC(=O)c1c(Cl)cccc1C(=O)N[C@@H](CO)c1ccccc1 [compound 1443] | A (100) |

same assay, conditions: diamondback moth; judged by the mortality criterion of Test Example 1

| Compound | Insecticidal effect, Test Example 1 |
| --- | --- |
| CC(C)NC(=O)c1ccccc1C(=O)Nc1ccccc1 [compound 20] | A (100) |
| CC(C)NC(=O)c1ccc(Cl)cc1C(=O)Nc1ccc(OC(F)(F)F)cc1 [compound 185] | A (100) |
| CC(C)NC(=O)c1cccc(I)c1C(=O)Nc1ccc(SC(F)(F)C(F)F)cc1 [compound 422] | A (100) |
| Cc1c(Cl)cccc1NC(=O)c1cc(Cl)ccc1C(=O)NC(C)C [compound 189] | A (100) |
| Cc1c(Cl)ccc(NC(=O)c2c(Br)cccc2C(=O)NC(C)C)c1C [compound 308] | A (100) |
| CC(C)NC(=O)c1cccc(Cl)c1C(=O)Nc1ccc(C(F)(F)C(F)(F)C(F)(F)C(F)(F)F)cc1 [compound 199] | A (100) |
| Cc1cc(C)c(NC(=O)c2cccc(Br)c2C(=O)NC(C)C)c(C)c1 [compound 265] | A (100) |
| CC(C)NC(=O)c1c(Cl)cccc1C(=O)Nc1cc(Cl)c(OC(F)F)c(Cl)c1 [compound 151] | A (100) |
| Cc1cc(OC(F)(F)F)ccc1NC(=O)c1ccccc1C(=O)NC(C)C [compound 59] | A (100) |
| CC(C)NC(=O)c1ccccc1C(=O)Nc1cccc(SC(F)(F)F)c1 [compound 31] | A (100) |
| CC(C)NC(=O)c1c(Cl)cccc1C(=O)Nc1ccc(C(C)(C)C)cc1 [compound 88] | A (100) |
| CCNC(=O)c1ccccc1C(=O)Nc1ccc(C(F)(F)F)cc1 [compound 7] | A (100) |
| CC(C)NC(=O)c1cccc(Cl)c1C(=O)Nc1ccc(SCC(F)(F)F)cc1 [compound 202] | A (100) |
| Cc1cc(Oc2cccc(C(F)(F)F)c2)ccc1NC(=O)c1cccc(I)c1C(=O)NC(C)C [compound 398] | A (100) |
| CCCNC(=O)c1cccc(Cl)c1C(=O)Nc1ccc(OC(F)F)cc1C [compound 16] | A (100) |
| CC(C)NC(=O)c1ccc(Cl)cc1C(=O)Nc1cccc(Cl)c1Cl [compound 186] | D (79-50) |

same assay, conditions: diamondback moth; mortality judged by criterion of Test Example 1

| Compound | Insecticidal effect, Test Example 1 |
| --- | --- |
| Cc1cc(OC(=C(C(F)(F)F)C(F)(F)F)C(F)(F)C(F)(F)F)ccc1NC(=O)c1cccc(Cl)c1C(=O)NC(C)C [compound 1291] | A (100) |
| Cc1ccc(CNC(=O)c2cccc(Cl)c2C(=O)Nc2ccc(C(F)(F)C(F)(F)F)cc2C)cc1 [compound 1342] | A (100) |
| Cc1cc(C(F)(F)C(F)(F)F)ccc1NC(=O)c1c(Cl)cccc1C(=O)NC(C)c1cccc(Cl)c1 (stereo not shown) [compound 1365] | A (100) |
| Cc1cc(OC(F)(F)C(F)F)ccc1NC(=O)c1cc(I)ccc1C(=O)NC(C)C [compound 1249] | A (100) |
| CCOCCNC(=O)c1cccc(I)c1C(=O)Nc1ccc(C(F)(F)C(F)(F)F)cc1C [compound 984] | A (100) |
| Cc1cc(C(F)(F)C(F)(F)F)ccc1NC(=O)c1cccc(Cl)c1C(=O)NC(CO)c1ccc(-c2ccccc2)cc1 (stereo not shown) [compound 1412] | A (100) |
| CCCNC(=O)c1cccc(I)c1C(=O)Nc1ccc(OC(F)(F)C(F)F)cc1C [compound 1059] | A (100) |
| CCN(CC)C(=O)c1cccc([N+](=O)[O-])c1C(=O)Nc1ccc(OC(F)(F)F)cc1 [compound 1139] | A (100) |
| Cc1ccccc1CNC(=O)c1cccc(Cl)c1C(=O)Nc1ccc(C(F)(F)C(F)(F)F)cc1C [compound 1338] | A (100) |
| Cc1cc(OC(F)(F)F)ccc1NC(=O)c1cc(F)c(F)cc1C(=O)NC(C)(C)C [compound 1288] | A (100) |
| Cc1cc(C(F)(F)C(F)(F)F)ccc1NC(=O)c1cccc(Cl)c1C(=O)NCCNc1ccccc1 [compound 1376] | A (100) |
| Cc1cc(C(F)(F)C(F)(F)F)ccc1NC(=O)c1ccccc1C(=O)NC(CO)c1ccccc1 (stereo not shown) [compound 1379] | A (100) |
| Cc1cc(OC(F)F)ccc1NC(=O)c1c(I)cccc1C(=O)NCc1ccccc1 [compound 1431] | A (100) |
| Cc1cc(C(F)(F)C(F)(F)F)ccc1NC(=O)c1cccc(Cl)c1C(=O)NCCOc1ccccc1 [compound 1374] | A (100) |
| Cc1cc(C(F)(F)C(F)(F)F)ccc1NC(=O)c1cccc(Cl)c1C(=O)NCCc1ccccc1 [compound 1319] | A (100) |

same assay, conditions: mortality judged according to the criterion shown in Test Example 1

| Compound | Insecticidal effect on diamondback moth (Test Example 1), judged grade |
| --- | --- |
| CC(C)NC(=O)c1c(C(=O)Nc2cccc(F)c2)cccc1[N+](=O)[O-] [compound 593] | A (100) |
| Cc1cc(Oc2c(F)c(F)c(F)c(F)c2F)ccc1NC(=O)c1c(I)cccc1C(=O)NC(C)C [compound 459] | A (100) |
| CC(C)NC(=O)c1c(C(=O)Nc2cc(Cl)c(OC(F)F)c(Cl)c2)cccc1[N+](=O)[O-] [compound 659] | A (100) |
| Cc1cc(OC(F)F)ccc1NC(=O)c1cccc([N+](=O)[O-])c1C(=O)N(C)C(C)C [compound 825] | A (100) |
| CC(C)NC(=O)c1cccc(-c2ccccc2)c1C(=O)Nc1ccc(OC(F)(F)F)cc1 [compound 808] | A (100) |
| COC(=O)c1cccc(C(=O)NC(C)C)c1C(=O)Nc1ccc(Cl)cc1C [compound 802] | D (79-50) |
| Cc1cc(Br)ccc1NC(=O)c1cccc([N+](=O)[O-])c1C(=O)NCc1cccnc1 [compound 888] | D (79-50) |
| CC(C)NC(=O)c1c(C(=O)Nc2cccc(C#N)c2)cccc1[N+](=O)[O-] [compound 597] | B (99-90) |
| Cc1cc(OC(F)F)ccc1NC(=O)c1c(F)cccc1C(=O)NC(C)C [compound 559] | A (100) |
| CCc1cccc(CC)c1NC(=O)c1cccc([N+](=O)[O-])c1C(=O)NC(C)C [compound 653] | A (100) |
| CC(C)NC(=O)c1cccc(I)c1C(=O)Nc1ccc(C=C(Cl)C(F)(F)F)cc1 [compound 918] | A (100) |
| Cc1cc(Sc2ccc(Cl)cc2)ccc1NC(=O)c1c(I)cccc1C(=O)NC(C)C [compound 463] | A (100) |
| CSc1ccccc1NC(=O)c1cccc([N+](=O)[O-])c1C(=O)NC(C)C [compound 622] | A (100) |
| CC(C)NC(=O)c1c(Cl)cccc1C(=O)Nc1ccc(C=C(Br)Br)cc1 [compound 913] | A (100) |
| Cc1ccc(F)cc1NC(=O)c1cccc([N+](=O)[O-])c1C(=O)NCCCl [compound 861] | A (100) |
| Cc1cccc(C)c1NC(=O)c1cccc([N+](=O)[O-])c1C(=O)NC(C)C [compound 650] | A (100) |
| CC(C)NC(=O)c1cccc(I)c1C(=O)Nc1cc(Cl)c(OC(F)F)c(Cl)c1 [compound 449] | A (100) |
| Cc1ccc(Cl)cc1NC(=O)c1cc([N+](=O)[O-])ccc1C(=O)NC(C)C [compound 738] | D (79-50) |
| CCc1ccc(F)cc1NC(=O)c1cccc([N+](=O)[O-])c1C(=O)NC(C)C [compound 677] | A (100) |
| CC(C)N(C)C(=O)c1ccccc1C(=O)Nc1ccc(C(F)(F)F)cc1 [compound 824] | A (100) |
| Cc1ccc(Cl)cc1NC(=O)c1cccc([N+](=O)[O-])c1C(=O)NC1CCCCC1 [compound 859] | D (79-50) |
| COc1ccc(NC(=O)c2cccc([N+](=O)[O-])c2C(=O)NC(C)C)cc1 [compound 614] | A (100) |
| CCC(C)NC(=O)c1cccc(Cl)c1C(=O)Nc1ccc(OC(F)F)cc1C (stereo not shown) [compound 837] | A (100) |
| CCc1cc(I)ccc1NC(=O)c1cccc(I)c1C(=O)NC(C)C [compound 919] | A (100) |
| CSc1ccc(NC(=O)c2cccc([N+](=O)[O-])c2C(=O)NC(C)C)c(C)c1C [compound 720] | A (100) |
| CC(C)NC(=O)c1c(C(=O)Nc2ccc(F)cc2)cccc1[N+](=O)[O-] [compound 594] | A (100) |
